Experimental data published in patent US20260335468A1, “MOLECULAR RADIOAFTERGLOW PROBES FOR CANCER RADIODYNAMIC THERANOSTICS” (NANYANG TECHNOLOGICAL UNIVERSITY, priority 2023, published 2026).

What was measured:
[1] = X-ray-induced NIR afterglow properties (Table 3); conditions: X-ray 0.005 Gy
Source text: To enable radio afterglow for organic molecules, we proposed a radiodynamic approach based on organic luminophores (DPAs and IDPAs) that were able to harvest X-ray energy for an in situ cycloaddition reaction to form self-luminescent chemical defects (FIG. 4b). This is mechanistically different from inorganic nanophosphors wherein the host materials (for example, fluoride and aluminosilicate) absorb X-rays, lattice defects delay excitons, and rare-earth/transition metal ion dopants (for example, Nd^3+ and Eu^3+) emit light (Richard, C. & Viana, B., Light.: Sci. Appl. 2022, 11, 123). Because of the presence of heavy atoms (iodine), IDPAs had higher radiodynamic ^1O2 generation and stronger radio afterglow emission than the iodine-free counterpart (DPAs). The radio afterglow dynamic processes of IDPAs were inducible even at a tissue depth of 15 cm, which was impossible when using light.

[2] = test system: U87MG subcutaneous tumor; test: X-ray-induced afterglow in U87MG subcutaneous tumor-bearing mice; type: in vivo, Balb/c nude mice; conditions: local injection
Procedure: For in vivo RAI by IDPASu, subcutaneous U87-tumour-bearing mice were intratumorally injected with IDPASu(100 μM, […]) solubilized with P-cyclodextrin (100 μM). Each group has three mice. At different post-injection timepoints (0, 0.5, 1.0, 2.0, 4.0, 6.0, 8.0, 12.0, 16.0 and 24.0 h), the tumours were irradiated with X-rays (5 mGy, 250 μGy s^−1 for 20 s), followed by radio afterglow detection using the IVIS imaging system under the bioluminescence mode with an open filter and acquisition time of 120 s. Tumour-free areas were protected by a 3.4-mm-thick lead shield with a notch. […] Radio afterglow signals from brain tumours were recorded with the IVIS imaging system under the bioluminescence mode with an open filter and acquisition time of 120 s. […] The tumour sizes were calculated as per the above-mentioned equation, showing ~0 mm^3 for 1 day post-implantation, 6 mm^3 (tumour diameter, 2.3 mm) for 5 days post-implantation, 22 mm^3 for 10 days post-implantation, 43 mm^3 for 20 days post-implantation and 77 mm^3 for 30 days post-implantation. At 15 min post-intraperitoneal injection of aqueous d-luciferin sodium salt (500 μmol kg^−1) solution into mice with different tumour sizes, the bioluminescence signals from the tumour sites were recorded with the IVIS imaging system under the bioluminescence mode with an open filter and automatic acquisition time. […]

[3] = test system: U87 cells; test: Cell viability of U87 cells with IDPASu (Cell Counting Kit-8); type: cell-based, human
Procedure: (§1) All the cells were purchased from the American Type Culture Collection, including CatB-negative cells (mouse embryonic fibroblasts 3T3 cells, RAW 264.7, 293-T and human monocytic THP-1 cells) and CatB-positive cells (human U87 glioblastoma cells, U87-luciferase cells, A549 lung epithelial cells and 4T1 and melanoma B16-F10). All the cells were cultured
(§2) in Dulbecco's modified Eagle medium (Gibco) or RPMI 1640 medium containing 10.0% foetal bovine serum (Gibco) and 0.1% ciprofloxacin in a humidified atmosphere containing 5.0% CO2 and 95.0% air at 37° C. To study the cell viability of IDPASu, U87 cells (1×10^4 per well) were seeded on 96-well plates and incubated for 24 h. IDPASu at different concentrations (0, 2.5, 5.0, 10.0, 25.0, 50.0 and 100.0 μM) were added to the U87 cell medium for 12 h incubation. After incubation, 96-well plates were covered with chicken breast tissues with different thicknesses (0, 5, 8 and 15 cm), followed by X-ray irradiation. The X-ray setup was optimized to ensure the cells in all the wells received similar dose of X-ray irradiation (2 Gy) before chicken breast tissue coverage (0 cm). After irradiation, the cells were further incubated for 12 h, followed by the colorimetric Cell Counting Kit-8 assay. Briefly, Cell Counting Kit-8 solution (10 l, Dojindo Molecular Technologies) was added into the cell medium (100 l) for 2 h incubation, and the absorbance of medium at 450 nm was recorded using a microplate reader (ReadMax 1900). The cells without IDPASu incubation and X-ray irradiation were set as control. The cell viability (%) was calculated by the absorbance of treated cells over that of the control cells. To test the cell viability of activatable MRAP, U87 and 3T3 cells (1×10^4 per well) were seeded on 96-well plates and incubated for 24 h. The inhibitor group was pre-treated with a CatB inhibitor (CA-074, 1 mM) for 10 h incubation. MRAP at different concentrations (0, 2.5, 5.0, 10.0, 25.0, 50.0 and 100.0 µM) were added to the U87 and 3T3 cell medium for 12 h incubation. […]

[4] = as above; type: cell-based, human; conditions: human, u87 cells; 100 μM; read-out: cell viability without X-ray
Procedure: as §1, §2

[5] = O2·^− detection with DHR123 upon X-ray irradiation; type: physicochemical; conditions: elevated radiation dosage
Procedure: To study other ROS generation, fluorescence sensors DHR123 (for O2·^− detection) and HPF (for ·OH detection) were used. For O2·^− detection, DHR123 (10 PM) was added to a solution of IDPASu (10 M) in PBS (0.01 M pH 7.4, 50% DMSO), followed by X-ray irradiation at different doses of 5 mGy (250 μGy s^−1 for 20 s) and 2 Gy (100 mGy s^1 for 20 s). The fluorescence changes in DHR123 were recorded at λex of 505 nm and λem of 534 nm. For ·OH detection, HPF ([…]) was added in a solution of IDPASu (10 M) in PBS (0.01 M, pH 7.4, 50% DMF), followed by X-ray irradiation at different doses, namely, 5 mGy (250 μGy s^−1 for 20 s) and 2 Gy (100 mGy s^−1 for 20 s). The fluorescence changes in HPF were collected at ex of 450 nm and λem of 515 nm. The ROS production was calculated by the corresponding standard curve.

`COC(=C1C2CC3CC(C2)CC1C3)c1cc(O)c(I)cc1/C=C/C1=CC(=C(C#N)C#N)c2ccccc2S1` [IDPASu] showed an afterglow half-life [1] of 18.4 min, an afterglow life-time [1] of 25 h and a λem [1] of ~773 nm. The “Intensity per dose per mouse” value [2] was 1.27 × 10^6 (p/s/cm2/sr)/(μg), the “cell viability under X-ray irradiation” value ([3]; 100 μM, X-ray 2 Gy, 100 mGy s^−1 for 20 s, no tissue) was 1.4% and the “cell viability under X-ray irradiation at tissue depth of 15 cm” value ([3]; X-ray through 15 cm chicken breast tissue) was 31.9%. For the same molecule, the viability at 24 h, 100 µM [4] was 91% and the “O2·^− generation” value [5] was “only minimal O2·^− could be generated”.
